The text below walks through data of patent publication US9822069B2, “Urea derivative or pharmacologically acceptable salt thereof” (KYORIN PHARMACEUTICAL CO. LTD., priority 2013, dated 2017).

For one test, the system named is mouse (BALB/c, male). Description: Effect of lipopolysaccharide induction on neutrophilic infiltration in mouse lung. It is filed as in vivo. The following applies: neutrophil infiltration in BAL fluid, LPS-exposed BALB/c mouse, oral; for inhibition in vivo at 1 mg/kg / inhibition in vivo at 3 mg/kg: 5 h, read-out: SUPPRESSION RATIO; for inhibition in vivo at 3 mg/kg / SUPPRESSION RATIO (%): dose 3 mg/kg. As for the experimental part:
Effect of Lipopolysaccharide Induction on Neutrophilic Infiltration in Mouse Lung A compound to be tested was orally administrated to a mouse (BALB/c, male), and after 30 minutes, the mouse was placed in a plastic container. Lipopolysaccharide (0.3 mg/mL) dissolved in physiological saline was aerosolized with an ultrasonic wave nebulizer (NE-U17, OMRON Corporation), and exposed to the mouse for 10 minutes. After 5 hours, the anesthetized mouse was sacrificed by exsanguination. A cannula was inserted in the respiratory tract and bronchoalveolar lavage (BAL) with 1 mL of 0.85% NaCl liquid containing 0.4% sodium citrate was carried out. This operation was repeated 3 times, to obtain a BAL fluid. The BAL fluid was centrifuged at 4° C. and ×200 g for 5 minutes, and the pellet was suspended in a physiological saline containing 0.1% BSA. The number of white blood cells was counted using Turks solution with a microscope, and the total white blood cell count was calculated. The white blood cells were fixed on a glass slide using Cytospin 3 (Thermo BioAnalysis Japan K. K.). The cells were stained with Diff-Quik (SYSMEX INTERNATIONAL REAGENTS CO., LTD.), and the number thereof was counted with a microscope, and the neutrophil ratio was calculated. The neutrophil ratio was multiplied by the total white blood cell count to calculate the total neutrophil count. An effect of the compound to be tested represents a percentage (%) of suppression ratio relative to the neutrophil count in a control.

The next test has as its target T1, human FPRL1 (Homo sapiens, UniProt P25090).
T1 construct: expressed in transfected cells; host or cells: HEK293 (JCRB9068, NIBIO), transient transfection with pCMV-script vectors using Lipofectamine 2000
T1 sequence (P25090 1-351): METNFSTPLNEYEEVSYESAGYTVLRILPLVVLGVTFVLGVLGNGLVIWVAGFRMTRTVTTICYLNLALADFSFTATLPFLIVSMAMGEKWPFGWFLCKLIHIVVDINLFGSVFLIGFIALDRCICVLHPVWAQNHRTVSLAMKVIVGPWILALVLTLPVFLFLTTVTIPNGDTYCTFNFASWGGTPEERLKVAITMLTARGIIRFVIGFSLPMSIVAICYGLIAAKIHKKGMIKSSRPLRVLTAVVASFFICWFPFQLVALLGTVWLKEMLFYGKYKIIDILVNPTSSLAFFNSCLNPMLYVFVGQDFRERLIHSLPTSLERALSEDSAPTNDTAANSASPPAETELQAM
Nature of the test: Measurement test of agonist activity on human FPRL1 (test of calcium mobilization in cell, HEK293 with human FPRL1 and Gα15 expression vectors). It is filed as cell-based. The settings on record: calcium mobilization in HEK293 cells with human FPRL1 and Gα15 expression vectors. The method in brief: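 HEK293 transiently co-transfected with human FPRL1 and Gα15, plated 24 h before assay, loaded with Fluo-4 NW dye plus probenecid. Compounds in eight 10-fold dilutions (DMSO stocks 10^−2 to 10^−9 M, then diluted 100-fold in assay buffer); calcium mobilization read on Flexstation for EC50.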

Consider `COc1ccc([C@@H]2CNC(=O)C2NC(=O)Nc2ccc(Cl)cc2)cc1` (mixture of isomers) [Example 1-53, (±)-trans-1-(4-chlorophenyl)-3-[4-(4-methoxyphenyl)-2-oxopyrrolidin-3-yl]urea], for which, in the test with mouse (BALB/c, male), the inhibition in vivo at 1 mg/kg is 78.9%. Besides, the EC50 on human FPRL1 amounted to 0.18 nM.
For `COc1ccc([C@@H]2CNC(=O)C2NC(=O)Nc2ccc(F)cc2)cc1` (mixture of isomers) [Example 1-54, (±)-trans-1-(4-fluorophenyl)-3-[4-(4-methoxyphenyl)-2-oxopyrrolidin-3-yl]urea], the inhibition in vivo at 3 mg/kg in the test with mouse (BALB/c, male) is 98.6%. Also, the EC50 at human FPRL1 came out at 0.11 nM.
The like results for `COc1ccc([C@@H]2CN(C)C(=O)C2NC(=O)Nc2ccc(Cl)cc2)cc1` (mixture of isomers) [Example 1-55, (±)-trans-1-(4-chlorophenyl)-3-[4-(4-methoxyphenyl)-1-methyl-2-oxopyrrolidin-3-yl]urea] were, in that order, 83.7% and 1.02 nM.
On to `COc1ccc([C@@H]2CN(C)C(=O)[C@H]2NC(=O)Nc2ccc(F)cc2)cc1` (relative stereo) [EXAMPLE 1-7, 1-(4-fluorophenyl)-3-[(3S*,4R*)-4-(4-methoxyphenyl)-1-methyl-2-oxopyrrolidin-3-yl]urea], for which, in the test with mouse (BALB/c, male), the inhibition in vivo at 1 mg/kg was determined as 96.9%. The EC50 on human FPRL1 turned out to be 0.22 nM.
Take `COc1cc(F)c([C@@H]2CNC(=O)[C@H]2NC(=O)Nc2ccc(Cl)nc2)c(F)c1` (relative stereo) [Example 1-31, (−)-1-(6-chloropyridin-3-yl)-3-[(3S*,4R*)-4-(2,6-difluoro-4-methoxyphenyl)-2-oxopyrrolidin-3-yl]urea]: the inhibition in vivo at 1 mg/kg in the test with mouse (BALB/c, male) came out at 69.7%. Moreover, the EC50 at human FPRL1 stood at 2.67 nM.
Turning to `COc1cc(F)c([C@@H]2CNC(=O)[C@H]2NC(=O)Nc2ccc(C)c(O)c2)c(F)c1` (relative stereo) [Example 1-68, (−)-1-[(3S*,4R*)-4-(2,6-difluoro-4-methoxyphenyl)-2-oxopyrrolidin-3-yl]-3-(3-hydroxy-4-methyl)phenyl)urea], in the test with mouse (BALB/c, male), the “SUPPRESSION RATIO (%)” value stood at 85.6%. The concentration for a half-maximal effect (EC50) on human FPRL1 stood at 0.08 nM.
The like results for `COc1cc(F)c([C@@H]2CNC(=O)[C@H]2NC(=O)Nc2ccc(F)c(O)c2)c(F)c1` (relative stereo) [Example 1-71, (−)-1-[(3S*,4R*)-4-(2,6-difluoro-4-methoxyphenyl)-2-oxopyrrolidin-3-yl]-3-(4-fluoro-3-hydroxyphenyl)urea] were, in that order, 79.7% and 0.09 nM.
In the same order, the values of `COc1cc(F)c([C@@H]2CNC(=O)[C@H]2NC(=O)Nc2ccc(Cl)c(O)c2)c(F)c1` (relative stereo) [Example 1-72, (−)-1-(4-chloro-3-hydroxyphenyl)-3-[(3S*,4R*)-4-(2,6-difluoro-4-methoxyphenyl)-2-oxopyrrolidin-3-yl]urea] are 93.3% and 0.05 nM.
Consider `COc1ccc([C@@H]2CN/C(=N\O)[C@H]2NC(=O)Nc2ccc(F)cc2)cc1` (single isomer, unassigned) [EXAMPLE 33-1, (−)-1-(4-Fluorophenyl)-3-[(3S*,4R*,Z)-2-(2-hydroxyimino)-4-(4-methoxyphenyl)pyrrolidin-3-yl]urea], for which the EC50 on human FPRL1 worked out at 1.14 nM.
The same measure, in the same setting: as for `COc1cc(F)c([C@@H]2CN/C(=N\O)[C@H]2NC(=O)Nc2ccc(F)cc2)c(F)c1` (single isomer, unassigned) [EXAMPLE 33-2, (−)-1-((3S*,4R*,Z)-4-(2,6-Difluoro-4-methoxyphenyl)-2-(hydroxyimino)pyrrolidin-3-yl)-3-(4-fluorophenyl)urea], the figure is 0.03 nM.
Turning to `COc1ccc([C@@H]2CN(CCO)C(=O)[C@H]2NC(=O)Nc2ccc(Cl)cc2)cc1` (single isomer, unassigned) [Example 15-1A, (−)-trans-1-(4-Chlorophenyl)-3-[1-(2-hydroxyethyl)-4-(4-methoxyphenyl)-2-oxopyrrolidin-3-yl]urea], at human FPRL1, the EC50 worked out at 0.01 nM.
Turning to `COc1ccc([C@@H]2CN(CCO)C(=O)[C@H]2NC(=O)Nc2ccc(Cl)cc2)cc1` (single isomer, unassigned) [Example 15-1B, (+)-trans-1-(4-Chlorophenyl)-3-[1-(2-hydroxyethyl)-4-(4-methoxyphenyl)-2-oxopyrrolidin-3-yl]urea], the concentration giving a half-maximal response (EC50) at human FPRL1 was determined as 1.99 nM.
Still for that read-out and setting: as for `COc1ccc(C2CNC(=O)C2NC(=O)Nc2ccc(Cl)cc2)cc1` (single isomer, unassigned; (+)) [Example 12-12, (+)-1-(4-chlorophenyl)-3-[4-(4-methoxyphenyl)-2-oxopyrrolidin-3-yl]urea], the figure is 0.9 nM; as for `COc1ccc(C2CNC(=O)C2NC(=O)Nc2ccc(Cl)cc2)cc1` (single isomer, unassigned; (-)) [Example 12-11, (−)-1-(4-chlorophenyl)-3-[4-(4-methoxyphenyl)-2-oxopyrrolidin-3-yl]urea], 4.57 nM; as for `COc1ccc([C@@H]2CN(C(C)C(=O)O)C(=O)[C@H]2NC(=O)Nc2ccc(F)cc2)cc1` (single isomer, unassigned; isomer a) [Example 18-1, (−)-2-{(3S*,4R*)-3-[3-(4-Fluorophenyl)ureido]-4-(4-methoxyphenyl)-2-oxopyrrolidin-1-yl}propionic acid (isomer A)], 2.36 nM.
Regarding `CNC(=O)C(C)N1C[C@@H](c2ccc(OC)cc2)[C@H](NC(=O)Nc2ccc(F)cc2)C1=O` (single isomer, unassigned; isomer a) [Example 19-1, (−)-2-{(3S*,4R*)-3-[3-(4-Fluorophenyl)ureido]-4-(4-methoxyphenyl)-2-oxopyrrolidin-1-yl}-N-methylpropionamide (isomer A)], at human FPRL1, the concentration for a half-maximal effect (EC50) came out at 0.21 nM.
With `COc1ccc([C@@H]2CN(C(C)C(=O)O)C(=O)[C@H]2NC(=O)Nc2ccc(F)cc2)cc1` (single isomer, unassigned; isomer b) [Example 20-1, (−)-2-{(3S*,4R*)-3-[3-(4-Fluorophenyl)ureido]-4-(4-methoxyphenyl)-2-oxopyrrolidin-1-yl}propionic acid (isomer B)], on human FPRL1, the EC50 turned out to be 0.47 nM.
On to `CNC(=O)C(C)N1C[C@@H](c2ccc(OC)cc2)[C@H](NC(=O)Nc2ccc(F)cc2)C1=O` (single isomer, unassigned; isomer b) [Example 21-1, (−)-2-{(3S*,4R*)-3-[3-(4-Fluorophenyl)ureido]-4-(4-methoxyphenyl)-2-oxopyrrolidin-1-yl}-N-methylpropionamide (isomer B)], for which the EC50 on human FPRL1 is 0.04 nM.
In the case of `CCOC(=O)CC/N=C1\NC[C@@H](c2c(F)cc(OC)cc2F)[C@@H]1NC(=O)Nc1ccc(F)cc1` [EXAMPLE 32-20, 3-((Z)-{(3S,4R)-4-(2,6-difluoro-4-methoxyphenyl)-3-[3-(4-fluorophenyl)ureido]pyrrolidin-2-ylidene}amino) propanoic acid ethyl ester], the EC50 on human FPRL1 amounted to 2.86 nM.
On the same count and under the same terms, the figure for `COc1ccc(C2CNC(=O)C2NC(=O)Nc2ccc(F)cc2)cc1` (stereo not drawn) [Example 12-13, (+)-1-(4-fluorophenyl)-3-[4-(4-methoxyphenyl)-2-oxopyrrolidin-3-yl]urea] is 1.12 nM.
Still for that read-out and setting: as for `COc1ccc(C2CN(CCO)C(=O)C2NC(=O)Nc2ccc(F)cc2)cc1` (stereo not drawn) [Example 12-15, (+)-1-(4-fluorophenyl)-3-[1-(2-hydroxyethyl)-4-(4-methoxyphenyl)-2-oxopyrrolidin-3-yl]urea], the figure is 0.43 nM.
